Test results reported in patent US20150157615A1, “COMPOSITIONS AND METHOD FOR THE STIMULATION OF THE FEMALE AND MALE SEXUAL RESPONSE” (MULTICHEM S.A.S. DI GABRIELE SEGALLA, priority 2013, published 2015).

How the values were obtained:
human skin = conditions: application on human skin; IJSPT Vol. 6 No. 2, 2011; cited from earlier work
female sexual response = test system: female sexual response
Experimental: (§1) The application is preferably carried out 4-5 minutes before intercourse, but can also be repeated during intercourse itself whenever required.

male sexual response = test system: male sexual response
Experimental: as §1

skin [1] = conditions: in the concentrations provided by the present invention
skin [2] = conditions: Norwegian Food Safety Authority risk profile / Council of Europe monograph 2008; cited from earlier work
[3] = women, alone, at least 0.5% up to 5% by weight, topical
[4] = men, alone, at least 0.5% up to 5% by weight, topical

Structure (SMILES): CC1CCC(C(C)C)C(O)C1 (stereo not drawn) [menthol]
- flow of blood in the part treated topically (human skin): reduces the flow of blood

Structure (SMILES): CC1CCC(C(C)C)C(OC(=O)c2cccnc2)C1 (stereo not drawn) [menthyl nicotinate, 5-Methyl-2-(isopropyl) cyclohexyl nicotinate]
- turgidity of the tissues / reddening or itching (female sexual response; in vivo): without however causing annoying reddening or itching
- latency period (period of time between orgasms) (female sexual response; [3]): Decrease
- number of orgasms (female sexual response; [3]): Multiple orgasms
- stimulation of the clitoris (female sexual response; [3]): Intense and prolonged stimulation
- time necessary for reaching orgasm (female sexual response; [3]): Decrease
- times of foreplay (female sexual response; [3]): Decrease
- duration of perception of cool tingling in the zone of application (female sexual response; women, depends on individual and concentration of active ingredient): up to one hour and more
- turgidity of the tissues / reddening or itching (male sexual response; in vivo): without however causing annoying reddening or itching
- flow of blood in the corpora cavernosa, turgidity and power of erection (male sexual response; [4]): A greater flow of blood
- retardant and reinvigorating effect (male sexual response; [4]): A retardant and at the same reinvigorating effect
- sexual stimulation (male sexual response; [4]): more intense
- voluntary control of ejaculation (male sexual response; [4]): Greater ability
- rubefacient and itching effect (skin [1]): does not exhibit any unpleasant rubefacient and itching effect

Structure (SMILES): COC(=O)c1cccnc1 [methyl nicotinate]
- concentration at which highly irritating to the skin in some cases (skin [2]): 0.00137-0.003%
